Data from patent US8119660B2, “Small-molecule inhibitors of the androgen receptor” (The Regents of the University of California, priority 2007, dated 2012).
Structures can show the parent of a compound that is named as a salt.

System: endogenous AR-regulated gene expression, LNCaP cells
Test: qRT-PCR of androgen-responsive genes in LNCaP cells
Assay type: cell-based, human
Conditions: No DHT = 1, 3 nM DHT alone or with 1 uM BIC, 100 nM PP or 100 nM HH
Procedure: LAPC4 and LNCaP cells were grown in the presence or absence of 3 nM DHT in charcoal-stripped media, with or without the inhibitors. RNA was harvested using an RNAeasy kit (Qiagen) and reverse transcribed (MMLV-RT, Invitrogen). Real-time PCR was carried out on a 7300 Real Time PCR System (Applied Biosystems) using SYBR green as the detecting dye and Rox as the reference dye. The androgen responsive genes kalikrein 3, or PSA (KLK3) [Cleutjens, K. B., et al., Two androgen response regions cooperate in steroid hormone regulated activity of the prostate-specific antigen promoter. J Biol Chem, 1996. 271(11): p. 6379-88; Nelson, P. S., et al., The program of androgen-responsive genes in neoplastic prostate epithelium. Proc Natl Acad Sci USA, 2002. 99(18): p. 11890-5), metalloproteinase 16 (MMP16) (Nelson, P. S., et al., The program of androgen-responsive genes in neoplastic prostate epithelium. Proc Natl Acad Sci USA, 2002. 99(18): p. 11890-5), transmembrane protease serine 2 (TMPRSS2) (Nelson, P. S., et al., The program of androgen-responsive genes in neoplastic prostate epithelium. Proc Natl Acad Sci USA, 2002. 99(18): p. 11890-5; […] Vaarala, M. H., et al., Expression of transmembrane serine protease TMPRSS2 in mouse and human tissues. J Pathol, 2001. 193(1): p. 134-40), FK506-binding immunophilin 51 (FKBP51) (Nelson, P. S., et al., The program of androgen-responsive genes in neoplastic prostate epithelium. Proc Natl Acad Sci USA, 2002. 99(18): p. 11890-5; Amler, L. C., et al., Dysregulated expression of androgen-responsive and nonresponsive genes in the androgen-independent prostate cancer xenograft model CWR22-R1. Cancer Res, 2000. 60(21): p. 6134-41; Velasco, A. M., et al., Identification and validation of novel androgen-regulated genes in prostate cancer. Endocrinology, 2004. 145(8): p. 3913-24; Magee, J. A., et al., Direct, androgen receptor-mediated regulation of the FKBP5 gene via a distal enhancer element. Endocrinology, 2006. 147(1): p. 590-8), G-protein coupled receptor RDC1 homolog, or chemokine orphan receptor 1 (RDC-1) (Nelson, P. S., et al., The program of androgen-responsive genes in neoplastic prostate epithelium. Proc Natl Acad Sci USA, 2002. 99(18): p. 11890-5), NK homeobox family member 3 (Nk×3.1) (Nelson, P. S., et al., The program of androgen-responsive genes in neoplastic prostate epithelium. Proc Natl Acad Sci USA, 2002. 99(18): p. 11890-5; Bieberich, C. J., et al., Prostate-specific and androgen-dependent expression of a novel homeobox gene. J Biol Chem, 1996. 271(50): p. 31779-82; […]) were all normalized to the transcription of the housekeeping ribosomal gene (RPL19). All samples were done in triplicate and separately normalized.

## Cc1nccc2c1[nH]c1cc(O)ccc12 [HH, harmol hydrochloride]
  FKBP51 transcription (normalized to RPL19): 1.90
  KLK3 transcription (normalized to RPL19): 1.46
  MMP16 transcription (normalized to RPL19), androgen-repressed gene: 1.02
  Nkx3.1 transcription (normalized to RPL19): 1.28
  RDC1 transcription (normalized to RPL19), androgen-repressed gene: 1.22
  TMPRSS2 transcription (normalized to RPL19): 1.22
